According to patent publication US20240342158A1, “METHOD OF TREATING AND/OR PREVENTING TYPE 1 DIABETES WITH CEPHARANTHINE” (ALBERT EINSTEIN COLLEGE OF MEDICINE, priority 2021, published 2024):

Assays:
[1] = biological target: recombinant APS3v-HLA-DR3 (Homo sapiens, UniProt P01903+P01911, A100K/A102G/A103R/F55Y/I96L/K41T/P40S/Q125H/Q178H/Q39Y/R42S/S66N/T106N/W38E/Y61H); test: ELISA inhibition assay of biotinylated peptide binding to recombinant APS3v-HLA-DR3; settings: ELISA inhibition assay, final concentration 0.4 mM
recombinant APS3v-HLA-DR3, sequence (P01911 30-227 W38E/Q39Y/P40S/K41T/R42S/F55Y/Y61H/S66N/I96L/A100K/A102G/A103R/T106N/Q125H/Q178H): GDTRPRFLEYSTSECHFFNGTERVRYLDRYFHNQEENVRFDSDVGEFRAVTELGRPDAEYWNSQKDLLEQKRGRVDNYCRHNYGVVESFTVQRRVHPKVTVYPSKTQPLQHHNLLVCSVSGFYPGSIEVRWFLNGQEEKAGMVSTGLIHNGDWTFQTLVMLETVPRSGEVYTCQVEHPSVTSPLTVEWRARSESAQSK
recombinant APS3v-HLA-DR3, sequence (P01903 26-216): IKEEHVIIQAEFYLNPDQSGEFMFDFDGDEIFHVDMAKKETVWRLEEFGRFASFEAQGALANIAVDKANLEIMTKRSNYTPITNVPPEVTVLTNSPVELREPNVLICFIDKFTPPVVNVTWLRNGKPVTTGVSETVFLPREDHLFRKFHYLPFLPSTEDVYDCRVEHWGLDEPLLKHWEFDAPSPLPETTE
Protocol: An in vitro binding assay was performed. […] On the day before the immunoassay was performed, a 96-well DELFIA yellow plate (PerkinElmer Life Science) was coated overnight with 20 μg/ml of L243 antibody [Hybridoma was purchased from ATCC, catalogue number HB-55, and IgG was purified by QED Bioscience (San Diego, CA)] in bicarbonate buffer, pH 9.6 (Sigma-Aldrich). L243 is a monoclonal antibody that specifically recognizes the DRa chain of HLA-DR when it is properly folded and complexed with the b chain. The plate was then washed with DELFIA wash buffer (diluted 1:25 from DELFIA wash concentrate, PerkinElmer) to wash off the excess L243 antibody. Blocking was performed using 2.5% BSA in PBS at room temperature for 1 h. After washing 4 times, 100 μl of the pre-incubated mix (containing recombinant APS3v-HLA-DR3 protein, APO, and small molecules) were added onto the plate and shaken at slow speed for 2 h at room temperature. After washing 4 times, DELFIA Europium-labeled streptavidin (PerkinElmer) diluted in DELFIA assay buffer (PerkinElmer) was added for 30 min and shaken at slow speed at room temperature. After washing for 6 times, DELFIA Enhancement Solution was added for 1 h until the optimal signal was reached. Time-resolved fluorescence was measured using the BMG reader (BMG Labtech, Cary, NC). A virtual screen identified 100 small molecules that were predicted to block the unique APS3v-HLA-DR3 pocket. To produce a manageable selection of compounds for validation we clustered the 100 compounds by their simplified molecular input line entry system (SMILES) similarity into 20 clusters. Of the 20 clusters we selected the top scoring members in each cluster. We have enhanced this list to include a total of 11 compounds that blocked APS3v-HLA-DR3, the key HLA-DR3 pocket that triggers APS3v. We tested the selected 11 small molecules identified by the virtual screen in our in vitro ELISA, to test whether the 11 small molecules can block APO peptide (the strongest known peptide binder to HLA-DR3) binding to recombinant APS3v-HLA-DR3. Of the 4 validated small molecules we selected S53 for further testing because it is the only one that has been used in humans before. […] ELISA was performed as previously described.

[2] = system: splenocytes and draining lymph node cells of immunized NOD-DR3 mice; test: Small molecule inhibition of cytokine production ex vivo (Milliplex); format: cell-based, humanized NOD-DR3 mice; parameters: GAD.492-induced IFN-g production: unit not given here; settings: 1 μM small molecule + GAD.492 20 μg/ml, 48 h; GAD.492 alone 56.3
Protocol: (§1) Cytokine Assays: Milliplex mouse cytokines/chemokine magnetic panel (Catalog no. MCYTOMAG-70K, EMD Millipore Corporation, Billerica, MA) was used to assay the cytokines, as described in the art. Briefly, splenocytes were plated at 2×10^6 cells per well in 500 μl of medium (RPMI/10% FBS). Supernatants from stimulated lymphocytes were collected 48 h after stimulation with peptides and stored in −80° C. until the assay was performed. The 96-well plate supplied in the kit was washed with the wash buffer supplied and the plate was shaken for 10 min at room temperature. Standards and quality controls were added, followed by the samples. The pre-mixed beads (Interferon gamma and IL-2) were sonicated, vortexed and added to the wells. After shaking the plate overnight at 4° C., the plate was washed twice with wash buffer. Detection antibodies were added for 1 h at room temperature, and Streptavidin-Phycoerythrin was added for 30 min at room temperature. The plate was washed twice and sheath fluid was added to resuspend the beads for 5 min before reading in Luminex 200 with xPONENT software (Luminex, Austin, Texas).
Small Molecule Inhibition of Cytokine Production Ex Vivo: Eight NOD-DR3 mice were immunized with the three thyroidal/islet peptides. Upon sacrifice, splenocytes were incubated with 1 μM of small molecules (S5, S9, S15, S53) together with TPO.758 (20 μg/ml), GAD.492 (20 μg/ml) or Tg.1571 (20 μg/ml) respectively to assess the blockade of these peptides' presentation by the tested small molecules. Supernatants from stimulated lymphocytes were collected 48 h after stimulation with peptides and small molecules, and stored in −80° C. until the cytokine assay was performed. […]

[3] = system: splenocytes and draining lymph node cells of immunized NOD-DR3 mice; test: Interferon gamma response of lymphocytes of co-immunized NOD-DR3 mice to the peptides; format: cell-based, humanized NOD-DR3 mice; settings: lymphocytes of mice co-immunized with Tg.1571, GAD.492 and TPO.758, stimulated 48 hours
Excerpt: Induction of T-Cell Response to Islet and Thyroid Autoantigens in Humanized NOD-DR3 Mice as a Model of APS3v: Previously we have identified 4 thyroid and islet peptides that triggered T-cell responses inNOD-DR3mice—Tg.1571,GAD.492, TPO.338 and TPO.758 (12). However, only 3 of these peptides (Tg.1571, GAD.492, and TPO.758) elicited significant B-cell (antibody) responses. Therefore, we concluded that these 3 peptides are the major T-cell epitopes in APS3v and used them to induce a model of APS3v in humanized NOD-DR3mice. To induce the APS3v model, 22 female NOD-DR3 mice 4-6 weeks old were co-immunized subcutaneously with these three peptides: Tg.1571, GAD.492 and TPO.758 (100 μg each peptide), in Complete Freund's Adjuvant (CFA, Sigma-Aldrich). Mice were immunized with peptides on day 0 and boosted on day 7, then sacrificed on day 21. As negative control, humanized NOD-DR3 littermates were immunized with PBS emulsified in CFA.
as §1, with “Texas). […]” for “Texas).”

Row | Compound | inhibition of binding of the 3 peptides (TPO.758, GAD.492, Tg.1571) to the HLA-DR3 pocket [1] | GAD.492-induced IFN-g production [2] | interferon gamma (IFN-g) response to the peptide [3]
1 | Cc1ccc(-c2nnc(Nc3ccc(C(=O)Nc4ccccc4)cc3)c3ccccc23)cc1S(N)(=O)=O [S5] | significant inhibition of binding for all 3 peptides | – | –
2 | Cc1ccccc1Nc1nnc(-c2ccc(C)c(S(N)(=O)=O)c2)c2ccccc12 [S9] | only blocked GAD.492 and Tg.1571 binding | – | –
3 | COc1ccc(Nc2nnc(-c3ccc(C)c(S(N)(=O)=O)c3)c3ccccc23)cc1C(N)=O [S15] | significant inhibition of binding for all 3 peptides | 30.1 | –
4 | GAD.492: glutamic acid decarboxylase 65 (GAD65) peptide REGYEMVFDGKPQHTNVCF (SEQ ID NO: 2) (GAD.492) | – | – | 99.6 pg/mL
5 | TPO.758: thyroid peroxidase (TPO) peptide ESGRRVLVYSCRHGYELQG (SEQ ID NO: 3) (TPO.758) | – | – | 717 pg/mL
6 | Tg.1571: thyroglobulin (Tg) peptide EKVPESKVIFDANAPVAVRSKVPDSEF (SEQ ID NO: 1) (Tg.1571) | – | – | 24.2 pg/mL
